Experimental data reported in patent publication US20060292553A1, “Method for study of the genetic and functional variability of HIV and kit for using it” (Bioalliance Pharma, a corporation of France, priority 2004, published 2006).

Tests used:
[1] = tested on: HIV-1 virus of the patient (protease and inverse transcriptase genes); assay: Trugene genotyping, interpretation of resistances from the amplicon of patient plasma; settings: M184V, T215Y, L63P
From the text: (§1) The procedure to generate the first specific amplicon is as follows: • 1) Viral RNA contained in a biological sample is extracted. The biological sample may be derived from a sample from the patient. It may be a blood or serum sample, but may also come from a biological fluid or a biopsy or any other tissue preparation. The biological sample may also come from a viral culture. In a general manner, a biological sample corresponds to all types of samples containing one or several HIV-1 variants. The term “HIV-1 virus” in this Example is used to mean any viral strain belonging to the sub-types B and non-B. • 2) The RNA obtained in (1) is retrotranscribed and amplified with one of the pairs of specific primers in Table 1 below to obtain an amplicon characterized by: […]
(§2) Tables 2 and 3 below show two examples of samples of plasma in patients 1 and 2, respectively, for which the amplicons generated by the method above have made it possible to implement the genotyping according to the Trugene and Viroseq techniques and phenotyping according to the Phenoscript technique.
The Trugene HIV-1 genotyping kit is used to determine the genotype of the virus of sub-types B and non-B. The RNA is extracted using plasma from patients, according to known techniques, the viral RNA is retrotranscribed and amplified using PCR with primers specific for the pol gene making possible amplification of a sequence of nucleic acids of 1300 pb comprising, for the protease, codons 1 to 99 and comprising, for the inverse transcriptase, codons 1 to 247. The product of RT-PCR thus obtained is used in each of the 16 sequencing reactions by using the principle of CLIP™ reaction, sequencing technique using labeled primers (dye primers). Four pairs of different primers are used for this sequencing method, two pairs for the sequencing of the protease and two other pairs for the sequencing of the inverse transcriptase. Each sequence reaction is initiated by a specific dye primer (CLIP™), then interrupted by the corresponding labeled nucleotide. All of the fragments synthesized are then separated on electrophoresis gel and analyzed by an automatic sequencer specifically indicating the fragments ending with each of the four labeled nucleotides. The sequences, once reconstituted, are compared to the sequence of a reference virus using an alignment software.
(§3) The measurement of genetic variability is carried out using a specific sequence of nucleic acids amplified according to aspects of the method, then analyzed according to known sequencing techniques (Trugene, ViroSeq). Mutations in the genes of the protease and of the inverse transcriptase identified by these tests are interpreted according to algorithms that are updated regularly. A first score of 0 to 2 is attributed to each of the three levels of resistance determined by the interpretation. Table 11 below summarizes the interpretations given by the Trugene and ViroSeq tests as a function of the mutations identified and of the anti-retroviruses (ARV) used and assigns a genotypical score corresponding to the magnitude of the resistance.

[2] = tested on: HIV-1 virus of the patient (recombinant virus); assay: Phenoscript phenotyping, recombinant virus of the patient in the presence of drugs; format: cell-based
From the text: The principle of the phenotypical tests for resistance is based on the measurement in vitro of the growth of a virus in the patient in the presence of drugs.
Viral RNA derived from the plasma is extracted, then the regions coding for inverse transcriptase and/or protease are amplified using PCR in phenotypical tests. Amplicons are recombined in vitro in a defective vector to form a viral particle. This viral particle is placed in a culture in the presence of increasing concentrations of drugs. The results are expressed in a “fold change” ratio of IC 50 (or IC90) with respect to a control virus which corresponds to the concentration of the drug that inhibits 50% (or 90%) of the viral replication in comparison to the reference wild type virus. The resistance level is defined as a function of thresholds of sensitivity (cut off).
as §2
The principle of the tests of phenotypical resistance is based on the measurement in vitro of the growth of a virus in the patient in the presence of drug(s)/active agent(s), compared to a reference virus (resistance index). The level of resistance is defined as a function of thresholds of sensitivity (cut off). A second score of 0 to 2 is attributed to each of the three levels of resistance determined by the interpretation. Table 12 summarizes the interpretations given by the main phenotypical tests, PhenoSense and Phenoscript, as a function of their thresholds of sensitivity and assigns a phenotypical score corresponding to the magnitude of resistance.

[3] = tested on: HIV-1 virus of the patient (protease and inverse transcriptase genes); assay: ViroSeq genotyping, evidence of resistance from the amplicon of patient plasma; settings: M184V, T215Y, L63P
From the text: as §1, §2
The RNA is extracted using plasmas from patients according to a known extraction technique based on the affinity of RNA with respect to silica columns, the viral RNA is retrotranscribed and amplified using PCR with primers specific to the pol gene making possible amplification of a sequence of nucleic acids of 1800 pb comprising, for the protease, codons 1 to 99 and comprising, for the inverse transcriptase, codons 1 to 335. The DNA thus obtained is then sequenced with seven different primers according to the Big Dye™ Terminator technology, a sequencing technique using dye terminators. The sequence reaction is initiated by each specific non-labeled primer, then interrupted by each of the labeled nucleotides. All of the fragments synthesized are then separated on electrophoresis gel. The color of the fluorochrome will then be registered using an automatic sequencer (ABI Prism 377 DNA sequencer), specifically indicating the fragments ending with each of the four labeled nucleotides. The sequences, once reconstituted, are compared to the sequence of a reference virus using an alignment software.
as §3

[4] = Patient 1 plasma sample, mutations D67N, K70R, K219E, K103N, V108I, P225H
[5] = Patient 2 plasma sample, mutations M41L, L210W, M36L

SMILES	Trugene Interpretation of resistances [1, 4]	Trugene Interpretation of resistances [1, 5]	Phenoscript Contribution to the therapeutic response ([2]; Patient 1 plasma sample)	Phenoscript Contribution to the therapeutic response ([2]; Patient 2 plasma sample)	Viroseq Evidence of resistance [3, 4]	Viroseq Evidence of resistance [3, 5]
Nc1nc(NC2CC2)c2ncn([C@H]3C=C[C@@H](CO)C3)c2n1 [ABC]	No resistance	Resistance	Possible	Possible	Possible	Possible
CC(C)OC(=O)OCOP(=O)(CO[C@H](C)Cn1cnc2c(N)ncnc21)OCOC(=O)OC(C)C.O=C(O)/C=C/C(=O)O [TDF]	No resistance	Resistance	–	–	–	–
Cc1cn([C@H]2C=C[C@@H](CO)O2)c(=O)[nH]c1=O [d4T]	Resistance	Resistance	Probable	Probable	High	Possible
Cc1cn([C@H]2C[C@H](N=[N+]=[N-])[C@@H](CO)O2)c(=O)[nH]c1=O [AZT]	Resistance	Resistance	Improbable	Improbable	High	High
O=c1[nH]cnc2c1ncn2[C@H]1CC[C@@H](CO)O1 [ddI]	Resistance	Resistance	Probable	Possible	Possible	Possible
Cc1cccc(C)c1OCC(=O)N[C@@H](Cc1ccccc1)[C@@H](O)C[C@H](Cc1ccccc1)NC(=O)[C@H](C(C)C)N1CCCNC1=O [LPV]	No resistance	No resistance	Probable	Probable	Zero	Zero
CC(C)CN(C[C@@H](O)[C@H](Cc1ccccc1)NC(=O)O[C@H]1CCOC1)S(=O)(=O)c1ccc(N)cc1 [APV]	No resistance	No resistance	Probable	Probable	Zero	Zero
CC(C)Nc1cccnc1N1CCN(C(=O)c2cc3cc(NS(C)(=O)=O)ccc3[nH]2)CC1 [DLV]	Resistance	No resistance	–	–	High	Zero
CC(C)(C)NC(=O)[C@@H]1C[C@@H]2CCCC[C@@H]2CN1C[C@@H](O)[C@H](Cc1ccccc1)NC(=O)[C@H](CC(N)=O)NC(=O)c1ccc2ccccc2n1 [SQV]	No resistance	No resistance	Probable	Probable	Zero	Zero
Cc1ccnc2c1NC(=O)c1cccnc1N2C1CC1 [NVP]	Resistance	No resistance	Improbable	Probable	High	Zero
Cc1c(O)cccc1C(=O)N[C@@H](CSc1ccccc1)[C@H](O)CN1C[C@H]2CCCC[C@H]2C[C@H]1C(=O)NC(C)(C)C [NFV]	No resistance	No resistance	Probable	Probable	Zero	Possible
CC(C)c1nc(CN(C)C(=O)N[C@H](C(=O)N[C@@H](Cc2ccccc2)C[C@H](O)[C@H](Cc2ccccc2)NC(=O)OCc2cncs2)C(C)C)cs1 [RTV]	No resistance	No resistance	–	–	Zero	Zero
Nc1ccn([C@@H]2CS[C@H](CO)O2)c(=O)n1 [3TC]	Resistance	Resistance	Improbable	Improbable	High	High
CC(C)(C)NC(=O)[C@@H]1CN(Cc2cccnc2)CCN1C[C@@H](O)C[C@@H](Cc1ccccc1)C(=O)N[C@H]1c2ccccc2C[C@H]1O [IDV]	No resistance	No resistance	Probable	Probable	Zero	Zero
Nc1ccn([C@H]2CC[C@@H](CO)O2)c(=O)n1 [ddC]	–	–	–	–	High	High
O=C1Nc2ccc(Cl)cc2[C@@](C#CC2CC2)(C(F)(F)F)O1 [EFV]	Resistance	No resistance	Improbable	Probable	High	Zero
